The assay relates to Wnt/β-catenin signaling pathway (Wnt-responsive SP5 promoter luciferase reporter in SW480 cells). Briefly: Wnt reporter (SP5 promoter-firefly luciferase) activation assay in SW480 cells. The format is cell-based. Conditions: Homo sapiens; SW480 colon cancer cells with SP5 promoter luciferase reporter; 24 h after compound addition; normalized to DMSO; concentration at half maximal activation. The gist of the method: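 SW480 cells (APC-mutant) stably carrying an SP5-derived 8×TCF/LEF promoter–firefly luciferase reporter were treated with half-log compound dilutions from 3 or 10 µM top.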
For orientation: EC50 means the concentration needed to bring the measured effect to its halfway point. A higher EC50 goes with a need for much substance. Take `COc1cccc(C(=O)CCC(=O)c2ccc3c(c2)OCCO3)c1` [Compound 13, 1-(2,3-Dihydrobenzo[b][1,4]dioxin-6-yl)-4-(3-methoxyphenyl)butane-1,4-dione]: it took 192 nM to reach a half-maximal effect (EC50).

Consider `Cc1ccccc1C(=O)CCC(=O)c1n[nH]c2ccccc12` [Compound 528, 1-(1H-Indazol-3-yl)-4-(o-tolyl)butane-1,4-dione], for which the EC50 was 148 nM.

Molecule `O=C(CCC(=O)c1ccc2[nH]ncc2c1)c1ccccc1` [Compound 513, 1-(1H-Indazol-5-yl)-4-phenylbutane-1,4-dione] showed an EC50 of 39 nM.

The molecule `O=C(CCC(=O)c1cccc2c1OCCO2)c1ccco1` [Compound 442, 1-(2,3-Dihydrobenzo[b][1,4]dioxin-5-yl)-4-(furan-2-yl)butane-1,4-dione] came in with an EC50 of 2150 nM.

`O=C(CCC(=O)c1ccc2c(c1)OCCO2)c1ccncc1` [Compound 15, 1-(2,3-Dihydrobenzo[b][1,4]dioxin-6-yl)-4-(pyridin-4-yl)butane-1,4-dione] came in with an EC50 of 90 nM.

As to `O=C(CCC(=O)c1ccc2[nH]ccc2c1)c1ccccc1` [Compound 261, 1-(1H-indol-5-yl)-4-phenylbutane-1,4-dione], the EC50 came out at 42 nM.

Regarding `O=C(CCC(=O)c1ccncn1)c1ccc2c(c1)OCCO2` [Compound 340, 1-(2,3-Dihydrobenzo[b][1,4]dioxin-6-yl)-4-(pyrimidin-4-yl)butane-1,4-dione], the EC50 worked out at 209 nM.

Regarding `O=C(CCC(=O)c1ncccn1)c1ccc2c(c1)OCCO2` [Compound 339, 1-(2,3-Dihydrobenzo[b][1,4]dioxin-6-yl)-4-(pyrimidin-2-yl)butane-1,4-dione], the EC50 was 9 nM.

`COc1ccccc1C(=O)CCC(=O)c1ccc2ocnc2c1` [Compound 294, 1-(Benzo[d]oxazol-5-yl)-4-(2-methoxyphenyl)butane-1,4-dione] showed an EC50 of 1720 nM.

As to `O=C(CCC(=O)c1ccco1)c1ccc2c(c1)OCCO2` [Compound 346, 1-(2,3-Dihydrobenzo[b][1,4]dioxin-6-yl)-4-(furan-2-yl)butane-1,4-dione], the response was half-maximal at 24 nM (EC50).

The molecule `O=C(CCC(=O)c1ccc2occc2c1)c1ccccc1` [Compound 287, 1-(Benzofuran-5-yl)-4-phenylbutane-1,4-dione] gave an EC50 of 87 nM.

Regarding `COc1cccc(C(=O)CCC(=O)c2c[nH]c3ccccc23)c1` [Compound 320, 1-(1H-Indol-3-yl)-4-(3-methoxyphenyl)butane-1,4-dione], the EC50 is > 10000 nM.

Turning to `O=C(CCC(=O)c1ccccc1C(F)(F)F)c1cccs1` [Compound 559, 1-(Thiophen-2-yl)-4-(2-(trifluoromethyl)phenyl)butane-1,4-dione], the EC50 came out at 340 nM.

The values are drawn from patent publication US10457672B2, “γ-diketones as Wnt/β-catenin signaling pathway activators” (Samumed, LLC, priority 2013, dated 2019).
